Data as given in the supplement of paper PMC10307832.

Assays:
Assay in all cases: relative viability (nuclei count vs DMSO), 5 days (fraction); higher = more cells survive
[1] = compound: N=C1NC(=O)/C(=C/c2ccc(O)cc2)S1 [Mirin] + COc1cccc2cc(-c3nc([C@H]4CC[C@H](C(=O)O)CC4)n4ncnc(N)c34)[nH]c12 [OSI-027] (partner 0.5 µM)
Summary of the method: (§1)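 For relative viability, nuclei counts in treated wells were divided by those in vehicle wells. Lung cancer cell lines had been pin-tool dosed in 1536-well plates the day after seeding and cultured for 5 days, then fixed and stained in one step (final 0.05% Triton X-100, 1% formaldehyde, 1 ug/ml Hoechst) and imaged at 4×. Doses were one drug alone or a fixed anchor-drug dose plus five library-drug doses (not always all listed) in √10 steps, and values are duplicate-plate medians.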

[2] = compound: N=C1NC(=O)/C(=C/c2ccc(O)cc2)S1 [Mirin] + NC(=O)Nc1cc(-c2cccc(F)c2)sc1C(=O)N[C@H]1CCCNC1 [AZD7762] (partner 0.2 µM)
Summary of the method: as §1

[3] = compound: CCn1c(-c2nonc2N)nc2cnc(Oc3cccc(NC(=O)c4ccc(OCCN5CCOCC5)cc4)c3)cc21 + C[C@]1(O)C[C@@H](c2nc(-c3ccc4ccc(-c5ccccc5)nc4c3)c3c(N)nccn32)C1 [Linsitinib] (partner 1 µM)
Summary of the method: as §1

[4] = compound: N=C1NC(=O)/C(=C/c2ccc(O)cc2)S1 [Mirin] + Nc1nc2[nH]cc(CCc3ccc(C(=O)N[C@@H](CCC(=O)O)C(=O)O)cc3)c2c(=O)[nH]1 [Pemetrexed] (partner 0.2 µM)
Summary of the method: as §1

| Cell Line | relative viability ([1]; first compound 0.25 µM) | relative viability ([1]; first compound 0.7906 µM) | relative viability ([1]; first compound 2.5 µM) | relative viability ([1]; first compound 7.906 µM) | relative viability ([1]; first compound 25 µM) | relative viability ([2]; first compound 0.25 µM) | relative viability ([2]; first compound 0.7906 µM) | relative viability ([2]; first compound 2.5 µM) | relative viability ([2]; first compound 7.906 µM) | relative viability ([2]; first compound 25 µM) | relative viability ([3]; first compound 0.04 µM) | relative viability ([3]; first compound 0.1265 µM) | relative viability ([3]; first compound 0.4 µM) | relative viability ([3]; first compound 1.265 µM) | relative viability ([3]; first compound 4 µM) | relative viability ([4]; first compound 0.25 µM) | relative viability ([4]; first compound 0.7906 µM) | relative viability ([4]; first compound 2.5 µM) | relative viability ([4]; first compound 7.906 µM) | relative viability ([4]; first compound 25 µM) |
| --- | --- | --- | --- | --- | --- | --- | --- | --- | --- | --- | --- | --- | --- | --- | --- | --- | --- | --- | --- | --- |
| RERF-LC-KJ | 0.691 | 0.59 | 0.596 | 0.651 | 0.425 | 1.17 | 0.878 | 0.953 | 0.814 | 1.08 | 1.06 | 0.976 | 0.877 | 0.721 | 0.637 | 0.429 | 0.514 | 0.485 | 0.49 | 0.42 |
| CAL-12T | 0.797 | – | 0.681 | 0.695 | 0.525 | 0.681 | 0.858 | 0.633 | 0.717 | 0.831 | 1.12 | 1.01 | 0.768 | 0.704 | 0.731 | 1.15 | 1.11 | 1.15 | 1.29 | 1.37 |
| COR-L 105 | 0.7 | 0.684 | 0.829 | 0.975 | 0.434 | – | – | – | – | – | 0.774 | 0.766 | 0.862 | 0.451 | 0.391 | 1.08 | 1.21 | 1.11 | 1.11 | 1.07 |
| NCI-H2405 | 0.625 | 0.612 | 0.585 | 0.627 | 0.508 | 0.747 | – | 0.798 | 0.734 | 0.599 | 0.955 | 0.568 | 0.417 | 0.31 | 0.263 | 1.1 | – | 1.16 | 1.14 | 1.07 |
| NCI-H2228 | 0.57 | 0.44 | 0.515 | 0.575 | 0.538 | – | – | – | – | – | 1.3 | 0.912 | 0.906 | 0.992 | 0.51 | 0.394 | 0.301 | 0.291 | 0.315 | 0.364 |
| PC-14 | 0.872 | 0.742 | 0.792 | – | 0.728 | 0.389 | 0.481 | 0.365 | 0.313 | 0.429 | 1 | 0.901 | 0.878 | 0.716 | 0.648 | 0.127 | 0.14 | 0.143 | 0.134 | 0.171 |
| NCI-H2087 | 0.633 | 0.436 | 0.374 | 0.253 | 0.358 | 1.31 | 1.59 | 1.45 | 1.3 | 1.75 | – | 0.682 | 0.762 | 0.747 | 0.828 | 0.69 | 0.715 | 0.66 | 0.678 | 0.708 |
| A549 | – | – | – | – | – | – | – | – | – | – | 0.726 | 0.662 | 0.733 | 0.178 | 0.319 | – | – | – | – | – |
| NCI-H2342 | 0.618 | 0.634 | 0.579 | 0.489 | 0.558 | 0.581 | 0.451 | 0.487 | – | 0.459 | – | – | – | – | – | 0.728 | 0.801 | 0.769 | – | 0.735 |
| NCI-H1623 | 0.444 | 0.442 | 0.421 | 0.336 | 0.376 | – | – | – | – | – | – | – | – | – | – | – | – | – | – | – |
| SW 1573 | 0.616 | 0.428 | 0.625 | 0.524 | 0.307 | – | – | – | – | – | 0.905 | 0.744 | 0.833 | 0.479 | 0.342 | 0.742 | 0.84 | 0.818 | 0.715 | 0.642 |
